Measured values taken from patent US10100076B2, “Modified nucleosides for the treatment of viral infections and abnormal cellular proliferation” (priority 2000, dated 2018).
Structures can show the parent of a compound that is named as a salt. Where two headings read alike, the source gives them in different places.

Tests used:
[1] = tested on: SUDHL-1 cells (human anaplastic large T-cell lymphoma cell line); experiment: Prevention of β-D-GA-related cytotoxicity by natural nucleosides, SUDHL-1 cells; format: cell-based; conditions: for prevention of β-D-GA toxicity, in words: 50 μM natural nucleoside, SUDHL-1 cells, 3 days, FIG. 4
Procedure: (§1) The prevention of β-D-GA-related cytotoxicity in CEM cells (human T-cell lymphoma) and in the SUDHL-1 cells (human anaplastic large T-cell lymphoma cell line) was studied by adding natural nucleosides. This experiment was initiated by adding 50 μM of natural nucleosides into the media, together with increasing concentration of β-D-GA. CEM cells were seeded at 2500 cells per well and incubated for 4 days (=fast growing cell line with a doubling time of 1.3 days). SUDHL-1 cells were seeded at 10,000 cells/well, and incubated for 3 days (=slow growing cell line, doubling time 3 days). The result of this experiment is plotted in FIG. 4.

[2] = tested on: CEM cells (human T-cell lymphoma); experiment: Prevention of β-D-GA-related cytotoxicity by natural nucleosides, CEM cells; format: cell-based; conditions: 50 μM natural nucleoside, 4 days, plot not shown
Procedure: as §1

[3] = tested on: Parainfluenza Type 3 Virus; experiment: organism not typed; format: cell-based, Parainfluenza type 3 virus strain 14702
[4] = tested on: Respiratory Syncytial Virus A; experiment: microbe, parasite or virus in culture; format: cell-based; conditions: Initial Test, Neutral Red
[5] = tested on: rRNA (host RNA polymerase I product); experiment: rRNA ΔCt in Huh7 replicon cells (effect on host RNA polymerases); conditions: Table 24, average of n
From the text: In a typical setting, a compound might reduce both the host RNA polymerase activity and the replicon-encoded polymerase activity. Therefore, quantification of rRNA (or any other host RNA polymerase I product) or beta-actin mRNA (or any other host RNA polymerase II) and comparison with RNA levels of the no-drug control is a relative measurement of the effect of the test compound on host RNA polymerases.
With the availability of both the HCV ΔCt data and the rRNA ΔCt, a specificity parameter can be introduced. This parameter is obtained by subtracting both ΔCt values from each other.

[6] = tested on: HCV replicon; experiment: HCV replicon system in Huh7 cells, replicon RNA by Q-RT-PCR (HCV ΔCt, ΔΔCt); format: cell-based, hepatitis C virus; conditions: for Ave. ΔΔCt: HCV RNA ΔCt minus rRNA ΔCt; for Ave. HCV RNA ΔCt: HCV replicon in Huh7 cells; for average ΔΔCt: HCV RNA ΔCt minus rDNA ΔCt
[7] = tested on: Influenza A (H1N1); experiment: microbe, parasite or virus in culture; format: cell-based; conditions: Initial Test, Neutral Red
[8] = tested on: Respiratory Syncytial Virus A; experiment: microbe, parasite or virus in culture; format: cell-based, Respiratory Syncytial Virus strain A2
[9] = tested on: Influenza A (H1N1); experiment: microbe, parasite or virus in culture; format: cell-based
[10] = tested on: Influenza A (H3N2); experiment: microbe, parasite or virus in culture; format: cell-based; conditions: Initial Test, Neutral Red
[11] = tested on: Influenza B; experiment: microbe, parasite or virus in culture; format: cell-based; conditions: Initial Test, Neutral Red
[12] = tested on: rDNA (host DNA); experiment: rDNA ΔCt in Huh7 replicon cells (effect on cellular DNA polymerases); conditions: Table 25, average of N
From the text: In another typical setting, a compound might reduce the host RNA polymerase activity, but not the host DNA polymerase activity. Therefore, quantification of rDNA or beta-actin DNA (or any other host DNA fragment) and comparison with DNA levels of the no-drug control is a relative measurement of the inhibitory effect of the test compound on cellular DNA polymerases.
With the availability of both the HCV ΔCt data and the rDNA ΔCt, a specificity parameter can be introduced. This parameter is obtained by subtracting both ΔCt values from each other.

[13] = tested on: Influenza B; experiment: microbe, parasite or virus in culture; format: cell-based
[14] = tested on: Influenza A (H3N2); experiment: microbe, parasite or virus in culture; format: cell-based
[15] = tested on: Parainfluenza Type 3 Virus; experiment: organism not typed; format: cell-based; conditions: Initial Test, Neutral Red
[16] = tested on: Influenza A (H3N2); format: cell-based, Influenza A virus A/Sydney/05/97
[17] = tested on: Influenza B; format: cell-based, Influenza B virus B/Beijing/184/93
[18] = tested on: Influenza A (H1N1); format: cell-based, Influenza A virus A/Beijing/262/95
[19] = tested on: PBM cells; experiment: cells; format: cell-based, human
Procedure: (§2) The cytotoxicity testing as performed herein is a standard technique. Briefly, cells are seeded in 96-well plates at various concentrations (dependent on cell type, duration of assay), typically at 5×10^3 cells per well, in the presence of increasing concentrations of the test compound (0, 1, 3, 10, 33, and 100 μM). After three (Vero cells), or four (CEM cells), or five (PBM cells) day-incubation, cell viability and mitochondrial activity are measured by adding the MTT-dye (Promega), followed by a 8 hours incubation. Afterwards the plates containing the dye are fixed by adding a stop-solution followed by another eight hour incubation. Finally, absorbance is read at 570 nm. Such methodologies are well described and available from the manufacturer (Promega).

[20] = tested on: CEM cells; experiment: cells; format: cell-based, human
Procedure: as §2

[21] = tested on: Vero cells; experiment: cells; format: cell-based
Procedure: as §2

[22] = tested on: human malignant T and B cells and various tumor cell lines; experiment: Toxicity profile against human malignant T and B cells and various tumor cell lines (MTT, IC50); format: cell-based; conditions: for IC50: MTT assay, 3-5 days, read-out: Toxicity IC50
Procedure: as §2, with “Cytotoxicity” for “The cytotoxicity”, “here are” for “herein is a”, “techniques.” for “technique.”, “Depending on the cell-type incubation with test compound can vary in time, but is usually within the range of 3 to 5 days. Cell” for “After three (Vero cells), or four (CEM cells), or five (PBM cells) day-incubation, cell”, “eight” for “a 8”, “hours of” for “hours”
In order to explore the complete potential of this compound, a set of human malignant T and B cells and various tumor cell lines were incubated with […] at varying concentrations, and after the absorbance was read, an IC50 value was calculated. As a control, Ara-C, 5FU, and cyclo-heximide was taken alongside (Table 26).

[23] = Initial Test, CPE Inhibition (Visual), read-out: EC50, Parainfluenza Type 3 Virus
[24] = Initial Test, CPE Inhibition (Visual), read-out: EC50, RSV
[25] = Initial Test, CPE Inhibition (Visual)
[26] = Confirmatory Test, Visual (EC50)

Row | Compound | prevention of β-D-GA toxicity, in words [1] | EC50 [3, 23] [µM] | EC50 [4] [µM] | Ave. rRNA ΔCt [5] | Ave. ΔΔCt ([6]; Table 24) | Ave. HCV RNA ΔCt ([6]; Table 24, average of n) | average ΔΔCt ([6]; Table 25) | Ave. HCV RNA ΔCt ([6]; Table 25, average of N) | EC50 [7] [µM] | EC50 [8, 24] [µM] | EC50 [9, 25] [µM] | EC50 [10] [µM] | EC50 [11] [µM] | Ave. rDNA ΔCt [12] | EC50 [13, 25] [µM] | EC50 [14, 25] [µM] | EC50 [15] [µM] | further results
1 | Nc1ccn([C@@H]2O[C@H](CO)C[C@H]2O)c(=O)n1 (as salt: hemisulfate) | – | – | – | – | – | – | – | – | – | – | – | – | – | – | – | – | – | melting point: 202 to 203 °C (dec.)
2 | O=c1[nH]c(=O)n([C@@H]2O[C@H](CO)[C@@H](O)[C@H]2O)c2nn[nH]c12 (hydrate or solvate) | – | – | – | – | – | – | – | – | – | – | – | – | – | – | – | – | – | melting point: 164 to 166 °C (dec.)
3 | Nc1ccn([C@H]2C[C@H](O)[C@@H](CO)O2)c(=O)n1 [2′-Deoxycytidine] | modest preventive activity effect | – | – | – | – | – | – | – | – | – | – | – | – | – | – | – | – | –
4 | Nc1ccn([C@@H]2O[C@H](CO)[C@@H](O)[C@H]2O)c(=O)n1 [cytidine] | markedly prevent β-D-GA toxicity | – | – | – | – | – | – | – | – | – | – | – | – | – | – | – | – | prevention of β-D-GA toxicity, in words [2]: markedly prevent β-D-GA toxicity
5 | O=c1ccn([C@@H]2O[C@H](CO)[C@@H](O)[C@H]2O)c(=O)[nH]1 [uridine] | markedly prevent β-D-GA toxicity | – | – | – | – | – | – | – | – | – | – | – | – | – | – | – | – | prevention of β-D-GA toxicity, in words [2]: markedly prevent β-D-GA toxicity
6 | Nc1ccn([C@@H]2O[C@H](CO)C[C@H]2O)c(=O)n1 [β-D-AJ] | – | > 500 | > 500 | 1.74 | 1.18 | 2.92 | 2.33 | 2.75 | 150 | > 500 | 150 | > 500 | 150 | 0.43 | 150 | > 500 | > 500 | –
7 | O=c1nc(NO)ccn1[C@@H]1O[C@H](CO)[C@@H](O)[C@H]1O [β-D-BS] | – | > 500 | < 0.5 | 1.05 | 3.83 | 4.89 | 4.45 | 4.81 | 1.2 | 0.5 | 1.5 | 4 | 1.2 | 0.38 | 0.5 | 1.5 | 40 | antiviral activity against Parainfluenza type 3 virus, in words ([3]; summary of Table 23): no activity against Parainfluenza type 3 virus; EC90 (virus yield reduction) [16]: 0.32 µM; antiviral activity against RSV, in words ([8]; summary of Table 23): some activities against RSV; EC50 [9, 26]: 1.3 µM; antiviral activity against influenza A and B, in words ([9]; summary of Table 23, influenza A and B): potent in vitro antiviral capacities against influenza A and B; EC90 (μM), virus yield reduction [17]: 0.6 µM; EC90 (virus yield reduction) [18]: 0.4 µM; EC50 [13, 26]: 0.6 µM; EC50 [14, 26]: 0.5 µM
8 | O=c1[nH]c(=O)n([C@@H]2O[C@H](CO)[C@@H](O)[C@H]2O)cc1O [β-D-CL, 5-hydroxyuridine] | – | – | – | – | – | – | – | – | – | – | – | – | – | – | – | – | – | EC50 ([3]; MA104, read-out: EC50, Parainfluenza Type 3 Virus): 90 µM; SI (Selectivity Index), RSV [4]: >170; EC50 ([4]; human respiratory syncytial virus, MA104): < 0.5 µM; EC50 ([7]; Influenza A virus, H1N1, MDCK): 8 µM; SI (Selectivity Index), Influenza A (H1N1) [7]: 1.1; antiviral activity against RSV, in words [8]: potent in-vitro anti-RSV compound; SI (Selectivity Index), RSV [8, 25]: 150; EC50 ([8]; human respiratory syncytial virus, MA104, read-out: EC50, RSV): 0.5 µM; EC50 ([9]; Influenza A virus, H1N1, MDCK, Initial Test, CPE Inhibition (Visual)): > 5 µM; EC50 ([10]; Influenza A virus, H3N2, MDCK): > 5 µM; EC50 ([11]; Influenza B virus, MDCK): > 5 µM; EC50 ([13]; Influenza B virus, MDCK, Initial Test, CPE Inhibition (Visual)): > 5 µM; EC50 ([14]; Influenza A virus, H3N2, MDCK, Initial Test, CPE Inhibition (Visual)): > 5 µM; SI (Selectivity Index), Parainfluenza Type 3 Virus [15]: 1; EC50 ([15]; MA104): 40 µM
9 | OC[C@H]1O[C@@H](n2cnc3c(Cl)ncnc32)[C@H](O)[C@@H]1O [β-D-DJ] | – | > 500 | > 500 | 3.62 | −0.11 | 3.51 | 2.14 | 4.84 | > 500 | 500 | > 500 | > 500 | 110 | 2.70 | 50 | > 500 | 500 | –
10 | Nc1nc(=O)n([C@@H]2C[C@H](CO)[C@@H](O)[C@H]2O)cc1F [β-D-GA] | – | – | – | 2.10 | 3.93 | 6.04 | – | – | – | – | – | – | – | – | – | – | – | IC50 [19]: > 100 µM; % inhibition at 100 μM, PBM cells ([19]; 100 μM, five day incubation, MTT): 11.3%; IC50 ([19]; PBM (human peripheral blood mononuclear cells), MTT assay, incubation 3-5 days, read-out: Toxicity IC50): > 100 µM; IC50 [20]: 1.9 µM; cytotoxic effect on CEM cells, in words [20]: selective cytotoxic effect on CEM cells; IC50 ([20]; CEM (human T-cell lymphoma cell line), MTT assay, incubation 3-5 days, read-out: Toxicity IC50): 2.9 µM; IC50 [21]: > 57.4 µM; IC50 ([21]; Vero (African green monkey kidney cell line), MTT assay, incubation 3-5 days, read-out: Toxicity IC50): > 100 µM; IC50 ([22]; BL41 (human B-cell lymphoma cell line)): < 1 µM; IC50 ([22]; H9 (human T-cell lymphoblast cell line)): 1.4 µM; IC50 ([22]; HEPG2 (human liver carcinoma cell line)): > 100 µM; IC50 ([22]; JY (human B-cell lymphoma cell line, EBV transformed)): 3 µM; IC50 ([22]; LNCaP (human prostate adenocarcinoma cell line)): 45.7 µM; IC50 ([22]; MCF-7 (human breast carcinoma cell line)): > 100 µM; IC50 ([22]; SK-MEL-28 (human melanoma cell line)): > 100 µM; IC50 ([22]; SK-MES-1 (human lung squamous carcinoma cell line)): > 100 µM; IC50 ([22]; SUDHL-1 (human anaplastic large T-cell lymphoma cell line)): 0.7 µM; IC50 ([22]; SupT1 (human T-cell lymphoblast cell line)): 0.3 µM; toxicity in tumor cell panel, in words ([22]; human malignant T and B cells vs PBM and non-T or B neoplastic cells): potent toxicity in human malignant T and B cells, but not in human PBM cells and non-T or B neoplastic cells; effectiveness against slow vs fast growing cells, in words ([1]; SUDHL-1 and CEM cells): equally effective against slower growing SUDHL-1 cells and fast growing CEM cells
